# Data: paper PMC11562788, “Insights into the Hierarchical Assembly of a Chemically Diverse Peptide Hydrogel Derived from Human Semenogelin I” (ACS Nano, 2024)
# Several values for one entry are separate records, joined by “and”; a condition that tells them apart may be missing. Identical values can stand only once. Entries after “also recorded” stand apart in the source; their conditions may differ. Residues, ends and D or L forms follow the SMILES beside them.
# How the values were obtained:
# [1] = SAXS/WAXS of fibrils, elliptical cylinder model fit; assay type: physicochemical; conditions: for Fibril axis ratio / Fibril cross-sectional area / Fibril minor radius (minor semiaxis): SAXS, elliptical cylinder model fit, day 7 at 21 °C; for Fibril axis ratio / Fibril cross-sectional area / Fibril minor radius (minor semiaxis) / Repeated dimension of broad SAXS peak at q = 0.172 Å^–1: pH 8.0; for Repeat distance of sharp SAXS peak at q = 0.305 Å^–1: after 7 days of incubation at 21 °C; for Repeated dimension of broad SAXS peak at q = 0.172 Å^–1: 7 days at 21 °C
# Experimental: Small- and wide-angle X-ray scattering (SAXS/WAXS) measurements were performed on a SAXSLabs Ganesha pinhole instrument (JJ X-ray System Aps) with an X-ray microsource (Xenocs) and a two-dimensional 300k Pilatus detector (Dectris Ltd., Switzerland). The wavelength, λ, used for all scattering experiments was 1.54 Å, and samples were measured at three sample-to-detector distances. All samples (200 μL) were loaded into a 1.5 mm diameter quartz capillary (Hilgenberg GmbH, Malsfeld, Germany), and the time-averaged scattering intensities were analyzed using a python code. The scattering intensity was corrected to an absolute scale by calibration against water. Supramolecular dimensions were extracted from SAXS data by using the SasView software and fitting the scattering curves to an elliptical-cylinder model (www.sasview.org).
# [2] = Hydrogelation and gel appearance by visual inspection; assay type: physicochemical; conditions: for Colloidal stability / phase separation of the hydrogel: visual inspection after hydrogel preparation, pH/pD 8.0, 2.0 mM, ambient temperature
# Experimental: All FTIR measurements were collected on samples where a trifluoroacetate (TFA^–) to chloride ion exchange was performed to eliminate signals from the TFA^– carbonyl moiety in the amide I spectral region (Figure S1). FTIR spectra were collected for P0–P5 in D2O at six pD values (3.0, 5.0, 7.0, 8.0, 9.0, and 10.0) (Figures S2–S7). FTIR analysis for P6–P8 was performed at a pD of 8.0 (Figures S8–S10). The bulk of FTIR studies were performed at pD 8.0, as the optimum pH range for hydrogelation is 7–9 for both SgI38–48[28] and P0.
# (§1) All samples were prepared in nonstick Eppendorf tubes (Axygen, Inc.). Prior to the final sample preparation (for all FTIR samples and when otherwise stated), the TFA counteranions present in the peptide sample after HPLC purification were exchanged for chloride using the following protocol: lyophilized peptide was dissolved in deionized D2O (1.0 mL). HCl was added at a molar ratio of 13.7:1 HCl:peptide. For the Phe^CN mutants, the sample was divided into two groups and lyophilized. One sample was then redissolved in H2O (to avoid obscuring the O–D stretches in the nitrile region) and the other in D2O (to avoid overlapping of the O-H bending vibrations in the amide I region) to a final concentration of 2.0 mM, unless otherwise specified. All other peptide samples were redissolved in D2O. The exchange of TFA^– to chloride may be verified by a lack of signal at 1672 cm^–1, seen in the IR spectrum for the deuterium-exchanged TFA salt of P3, where the carbonyl signal from TFA is well separated from the amide I carbonyl high frequency stretch at 1684 cm^–1 (Figure S1). On the day of the peptide sample preparation, D2O was placed in an Eppendorf tube, was then used as background when collecting data points (0 h, 48 h, 1 week, etc.), and was assumed to absorb the same amount of H2O over time as the peptide sample prepared on the same day. The concentration of the peptide solutions was verified with the UV–vis absorbance peak at 280 nm using a molar absorptivity of 2560 M^–1 cm^–1 for all sequences (P0–P7). The pH/pD of the samples was then corrected to 8.0 using small volumes of NaOH and HCl (or NaOD and DCl). After attaining the desired pH/pD, samples were incubated at ambient temperature (ca. 22 °C) and followed over 7 days (or as specified) to allow for hydrogelation.
# [3] = FTIR amide I: β-sheet self-assembly; assay type: physicochemical; conditions: D2O, ambient temperature; for Persistence of the β-sheet structure over time by FTIR: 0 h to 1 week or longer, pH as in the words
# Experimental: as §1
# FT IR was performed with a Bruker Vertex 70 spectrometer with a photovoltaic mercury cadmium telluride (MTC) detector. Before the spectral collection, the MCT detector was cooled with liquid nitrogen. A background spectrum (see hydrogel sample preparation above) was collected (6 μL of H2O or D2O), and the collection chamber was purged for 15 min before 6 μL of sample was loaded in between two CaF2 windows and separated by a 50-μm Teflon spacer in a 25-mm diameter demountable liquid cell (Harrick Scientific). After purging again, the IR spectrum was collected with 512 scans, with a resolution of 2 cm^–1, from 900 cm^–1 to 4000 cm^–1 at time t = 0 h, 24 h, 48 h, and 1 week (and sometimes longer) after sample constitution, processed using OPUS spectroscopy software, and plotted with Origin or KaleidaGraph.
# [4] = cited from earlier work
# Excerpt: The present study targets a relatively complex 13-residue peptide for which we attempt to uncover the underlying chemical principles behind hydrogelation and correlations between sequence, structure, and bulk mechanical properties. The peptide is derived from the human protein semenogelin I (SgI), which is the main proteinaceous constituent in seminal plasma. SgI is also present in nonreproductive tissues including skeletal muscles, the trachea, and the gastrointestinal tract.[35] We previously reported that a short fragment of SgI forms a pH-responsive gel, similar in properties to the full-l ... || All FTIR measurements were collected on samples where a trifluoroacetate (TFA^–) to chloride ion exchange was performed to eliminate signals from the TFA^– carbonyl moiety in the amide I spectral region (Figure S1). FTIR spectra were collected for P0–P5 in D2O at six pD values (3.0, 5.0, 7.0, 8.0, 9.0, and 10.0) (Figures S2–S7). FTIR analysis for P6–P8 was performed at a pD of 8.0 (Figures S8–S10). The bulk of FTIR studies were performed at pD 8.0, as the optimum pH range for hydrogelati ...
# [5] = Solubility in water; assay type: physicochemical; conditions: P7 and P8 not tested above 1.0 mM at pH 8
# [6] = Oscillatory and flow rheology of hydrogels; assay type: physicochemical; conditions: for Change of storage modulus G′ over one week: 2.0 mM, pH 8.0, 24 h against 1 week at 21 °C; for Recovery of initial G′ within 2 min after strain-induced loss of gel character / Time to complete recovery of the initial G′: after flow curve deformation; for Recovery of initial G′ within 2 min after strain-induced loss of gel character / Time to complete recovery of the initial G′ / Strain above which gel character is lost (G″ > G′) / Strain up to which the gel is linearly viscoelastic / Angular frequency up to which G′ and G″ are frequency-independent: hydrogel after 1 week, 25 °C; for Strain above which gel character is lost (G″ > G′) / Strain up to which the gel is linearly viscoelastic: amplitude sweep 0.01–100% strain; for Slope of viscosity against shear rate (shear thinning): flow curve, hydrogel after 1 week at ambient temperature, measured at 25 °C; for Angular frequency up to which G′ and G″ are frequency-independent: frequency sweep 0.1–100 rad/s
# Experimental: Rheology measurements were performed on an Anton Paar Physica MCR 301 instrument using a CP25-1 (diameter of 25 mm, angle of 1°) cone plate. A water trap was installed to prevent sample evaporation, and then, sample, 150–200 μL, was carefully plated on to the rheometer stage with a tipless 1 mL syringe to minimize gel deformation. Measurements were conducted with a […] gap size at a temperature of 25 °C. All rheological measurements were done at a frequency, ω, of 10 rad/s with data collection every 2 s. Samples were left for 1 h at a steady strain sweep, γ, of 0.5% (within the linear viscoelastic regime for all sequences) for the gel samples to recover a steady state fibril network, as observed by a stabilization in the value of G′. Subsequently, frequency sweep (0.1–100 rad/s), strain sweep (γ = 0.01–100%), and flow curve (0.1–50 s^–1) experiments were conducted. A time experiment in the linear viscoelastic regime (10 rad/s, 0.5%) for a 50 min period after the flow curve was used to estimate the recovery time of the hydrogels.
smiles,measurement,setting,value
CC(=O)N[C@@H](CCC(N)=O)C(=O)N[C@@H](Cc1ccc(O)cc1)C(=O)N[C@H](C(=O)N[C@@H](Cc1ccc(O)cc1)C(=O)N[C@@H](Cc1c[nH]cn1)C(=O)N[C@H](C(=O)N[C@@H](CC(=O)O)C(N)=O)C(C)C)[C@@H](C)O [P6] (Ac-QYTYHVD-NH2),Fibril axis ratio,[1]; 2.0 mM,1.9
same,Fibril cross-sectional area,[1]; 2.0 mM,57.4 nm^2
same,Fibril minor radius (minor semiaxis),[1]; 2.0 mM,3.1 nm
same,Repeat distance of sharp SAXS peak at q = 0.305 Å^–1,[1],2.1 nm
same,Colloidal stability / phase separation of the hydrogel,[2],colloidally unstable and undergoes phase separation
same,Hydrogel formation,"[2]; visual inspection, peptide in water/D2O, pH/pD 8.0, 2.0 mM (P7 1.0 mM), ambient temperature ca. 22 °C, up to 7 days",forms a hydrogel
CC[C@H](C)[C@H](NC(=O)[C@H](CO)NC(C)=O)C(=O)N[C@@H](CCC(N)=O)C(=O)N[C@@H](Cc1ccc(O)cc1)C(=O)N[C@H](C(=O)N[C@@H](Cc1ccc(O)cc1)C(=O)N[C@@H](Cc1c[nH]cn1)C(=O)N[C@H](C(=O)N[C@@H](CC(=O)O)C(N)=O)C(C)C)[C@@H](C)O [P4] (Ac-SIQYTYHVD-NH2),Fibril axis ratio,[1]; 2.0 mM,2.1
same,Fibril cross-sectional area,[1]; 2.0 mM,59.4 nm^2
same,Fibril minor radius (minor semiaxis),[1]; 2.0 mM,3.0 nm and 3 nm
same,Periodic repeat distance from WAXS peak,"[1]; WAXS, q = 1.3 Å^–1 (P0–P3) or 1.05 Å^–1 (P4–P6), 2.0 mM, pH 8.0, 21 °C",6.0 Å
same,Repeat distance of sharp SAXS peak at q = 0.305 Å^–1,[1],2.1 nm
same,Colloidal stability / phase separation of the hydrogel,[2],colloidally unstable and undergoes phase separation
same,Persistence of the β-sheet structure over time by FTIR,[3],sheet structure is lost within 1 week
"CC[C@H](C)[C@H](NC(=O)[C@H](CO)NC(=O)[C@H](Cc1ccccc1)NC(=O)[C@H](CO)NC(=O)CNC(C)=O)C(=O)N[C@@H](CCC(N)=O)C(=O)N[C@@H](Cc1ccc(O)cc1)C(=O)N[C@H](C(=O)N[C@@H](Cc1ccc(O)cc1)C(=O)N[C@@H](Cc1c[nH]cn1)C(=O)N[C@H](C(N)=O)C(C)C)[C@@H](C)O [SgI38–48, AcNH–GSFSIQYTYHV–CONH2] (Ac-GSFSIQYTYHV-NH2)",Optimum pH range for hydrogelation,[4],7–9
same,Concentration at which the peptide self-assembles into a hydrogel network,[4]; physiological conditions,0.5 % w/v
same,Solubility in water (in words),[5],limited solubility in water
CC(=O)N[C@H](C(=O)N[C@@H](Cc1ccc(O)cc1)C(=O)N[C@@H](Cc1c[nH]cn1)C(=O)N[C@H](C(=O)N[C@@H](CC(=O)O)C(N)=O)C(C)C)[C@@H](C)O [P8] (Ac-TYHVD-NH2),Solubility in water (in words),[5],low solubility
same,β-Sheet secondary structure (self-assembly) by FTIR amide I,"[3]; pD 8.0, 2.0 mM (P7, P8 and F40FCN 1.0 mM)",no sign of a β-sheet secondary structure; also recorded: unstructured
CC[C@H](C)[C@H](NC(=O)[C@H](CO)NC(=O)[C@H](Cc1ccccc1)NC(=O)[C@H](CO)NC(C)=O)C(=O)N[C@@H](CCC(N)=O)C(=O)N[C@@H](Cc1ccc(O)cc1)C(=O)N[C@H](C(=O)N[C@@H](Cc1ccc(O)cc1)C(=O)N[C@@H](Cc1c[nH]cn1)C(=O)N[C@H](C(=O)N[C@@H](CC(=O)O)C(N)=O)C(C)C)[C@@H](C)O [P2] (Ac-SFSIQYTYHVD-NH2),Repeated dimension of broad SAXS peak at q = 0.172 Å^–1,[1]; 2.0 mM,3.7 nm
same,Fibril axis ratio,[1]; 2.0 mM,3.5
same,Fibril cross-sectional area,[1]; 2.0 mM,35.6 nm^2
same,Fibril minor radius (minor semiaxis),[1]; 2.0 mM,1.8 nm
same,Change of storage modulus G′ over one week,[6],modestly increases
same,G′ of P2 relative to P3,[6]; after 1 week of incubation,close to an order of magnitude higher than P3
same,Recovery of initial G′ within 2 min after strain-induced loss of gel character,[6],ca. 75%
same,Time to complete recovery of the initial G′,[6],30 min
same,Strain above which gel character is lost (G″ > G′),[6],above 10 % strain
same,Strain up to which the gel is linearly viscoelastic,[6],up to 2 % strain
same,Slope of viscosity against shear rate (shear thinning),[6],ca. −1.1
same,Angular frequency up to which G′ and G″ are frequency-independent,[6],up to 20 rad/s
CC[C@H](C)[C@H](NC(=O)[C@H](CO)NC(=O)[C@H](Cc1ccccc1)NC(C)=O)C(=O)N[C@@H](CCC(N)=O)C(=O)N[C@@H](Cc1ccc(O)cc1)C(=O)N[C@H](C(=O)N[C@@H](Cc1ccc(O)cc1)C(=O)N[C@@H](Cc1c[nH]cn1)C(=O)N[C@H](C(=O)N[C@@H](CC(=O)O)C(N)=O)C(C)C)[C@@H](C)O [P3] (Ac-FSIQYTYHVD-NH2),Repeated dimension of broad SAXS peak at q = 0.172 Å^–1,[1]; 2.0 mM,3.7 nm
same,Fibril axis ratio,[1]; 2.0 mM,3.2
same,Fibril cross-sectional area,[1]; 2.0 mM,32.6 nm^2
same,Fibril minor radius (minor semiaxis),[1]; 2.0 mM,1.8 nm
same,Change of storage modulus G′ over one week,[6],significantly increases
same,Recovery of initial G′ within 2 min after strain-induced loss of gel character,[6],ca. 60%
same,Time to complete recovery of the initial G′,[6],45 min
same,Strain above which gel character is lost (G″ > G′),[6],> 60 % strain
same,Strain up to which the gel is linearly viscoelastic,[6],≤ 10 % strain
same,Slope of viscosity against shear rate (shear thinning),[6],ca. −1.1
same,Angular frequency up to which G′ and G″ are frequency-independent,[6],up to 20 rad/s
CC[C@H](C)[C@H](NC(=O)[C@H](CO)NC(=O)[C@H](Cc1ccccc1)NC(=O)[C@H](CO)NC(=O)CNC(C)=O)C(=O)N[C@@H](CCC(N)=O)C(=O)N[C@@H](Cc1ccc(O)cc1)C(=O)N[C@H](C(=O)N[C@@H](Cc1ccc(O)cc1)C(=O)N[C@@H](Cc1c[nH]cn1)C(=O)N[C@H](C(=O)N[C@@H](CC(=O)O)C(N)=O)C(C)C)[C@@H](C)O [P1] (Ac-GSFSIQYTYHVD-NH2),Fibril axis ratio,[1]; 2.0 mM,2.5
same,Fibril cross-sectional area,[1]; 2.0 mM,17.7 nm^2
same,Fibril minor radius (minor semiaxis),[1]; 2.0 mM,1.5 nm
same,Gel robustness as noticed in handling,[2]; pD 8.0 hydrogels,"less stable gel than P0, P2 and P3"
same,Persistence of the β-sheet structure over time by FTIR,[3],is lost over time
